According to patent US20100184809A1, “Heterocyclic FXR Binding Compounds” (PHENEX PHARMACEUTICALS AG, priority 2006, published 2010):

Experiments:
PAMPA permeability assay = assay type: in vitro ADME; conditions: % of compound found in the receiver compartment after 16 hours; PBS pH 7.4, 5% DMSO, 23° C.
Procedure: Artificial membrane permeability was determined as follows: Tested compounds were dissolved to 10 mM in 100% DMSO. Permeability of compounds was measured in PBS (pH 7.4), 5% DMSO at 23° C. Safire (Tecan) plate reader was used for measurement the UV/Vis absorption. Protocol: Dilute stocks of tested compounds and controls with PBS to 1.67 mM and mix well by pipeitting, add 280 μl of PBS, 5% DMSO to acceptor plate, add 5 μl of 2% L-α-Phosphatidylcholine suspension in dodecane to the membrane of donor plate, Immediately add 98 μl of PBS to donor plate and make the sandwich with acceptor plate. Add 42 μl of tested compounds and controls dilutions to […], cover the plate, place into camera and incubate for 16 hours. Make the equilibrium plate, add 225 μl of PBS, 3,7% DMSO and 25 μl of tested compounds and controls dilutions to UV plate. After 16 hours pull the donor plate out and transfer 250 μl from acceptor plate to UV plate. Scan UV plate on Safire (Tecan) plate reader from […]. Permeability is reported in % of compound found in the receiver compartment after the incubation period.

[1] = Rat microsomal stability assay; assay type: in vitro ADME; conditions: liver microsomes, 37° C., NADPH, 45 minute, read-out: Rat liver microsome clearance
Procedure: Compound stability towards rat liver microsomes was determined as follows: The microsomes are incubated with the test compound at 37° C. in the presence of the co-factor, NADPH, which initiates the reaction. The reaction is terminated by the addition of methanol. Following centrifugation, the supernatant is analysed on the LC-MS/MS. The disappearance of test compound is monitored over a 45 minute time period. The In peak area ratio (compound peak area/internal standard peak area) is plotted against time and the gradient of the line determined. Finally, Intrinsic clearance CLint is computed by the following equations: elimination rate konstant (k)=−gradient; t1/2 (min)=0.693/k; V (μl/mg)=volume of incubation (μl)/protein in incubation (mg); CLint (μl/min/mg protein)=V*0.693/t1/2.

[2] = Pharmacokinetic parameters in C57BL/6 mice (plasma concentration after peroral gavage); assay type: in vivo; conditions: mouse, oral, perorally by gavage 10 mg/kg, male C57BL/6 mice, read-out: mean plasma conc.
Procedure: Information on the rate and extent of absorption of the test compounds were generated using two distinct animal models, C57/BI/6J and C57/BLKS/J(mLepr^db/db) mice. Compounds were applied perorally by gavage at 10 mg/kg each to male 8 weeks old C57BL/6 mice and plasma concentrations of the test items were determined by LC-MS/MS (Table 11). Alternatively, compounds were applied perorally by gavage at 25 mg/kg each to 16 weeks old male C57/BLKS/J(mLepr^db/db) mice and plasma concentrations of the test items were determined 120 min after gavage by LC-MS/MS (Table 12).
A solution of 20 mg/ml of each test item was produced by diluting them in the vehicle, 30% HPBCD (hydroxypropyl-beta-cyclodextrin) in 20 mM phosphate buffer pH7.0 (v/w). These solutions were stirred overnight at room temperature and heated to 60° C. for 10 minutes, resulting in a full solubilization. The application was performed by administrating the solution perorally to the mice, with an application volume of 10 ml/kg. For each time point five mice were used. Blood samples were obtained by sacrificing animals for each time point followed by cardiac puncture. Blood samples were treated with Li-heparin during collection procedure and stored on ice until centrifugation at 645 g (5 min, 4° C.). Plasma was harvested and kept at −20° C. until being assayed. To 50 μl of mouse plasma sample 6 μl acetonitrile containing an internal standard was added. Samples were vigorously shaken and centrifuged for 10 minutes at 6000 g and 20° C. An aliquot of the particle-free supernatant was transferred to 200 μl sampler vials and subsequently subjected to LC MS/MS for quantification.

[3] = Aqueous solubility assay, Protocol A, nephelometry method; assay type: physicochemical; conditions: PBS with 5% DMSO, aqueous with cosolvent or surfactant or cyclodextrin, kinetic from dmso stock, PBS pH 7.4, 5% DMSO, 23° C., 24 hours, read-out: Aqueous solubility pH 7.4
Procedure: Aqueous solubility of compounds was determined by nephelometry or by the shake-flask method as follows:
Protocol A, nephelometry method:
Solubility of compounds was measured in PBS (pH 7.4), 5% DMSO at 23° C. Nepheloskan Ascent (Thermo Electron Corporation) nephelometer was used for measurement of light scattering. Tested compounds were dissolved in DMSO to 10 mM. Prior to measurement the compounds were further diluted with PBS in the wells to final compound concentrations of 100, 70, 50, 35, 25, 17, 12 and <10 μg/ml.
The plates were incubated at room temperature for 24 hours to reach equilibrium and the scattered light was measured. Assay validation: Aqueous solubility of acetylsalicylic acid was determined to validate the assay.
The following compounds of Table 2 exemplify such solubility with “−−” meaning solubility<2 μM, “+” meaning 2 μM solubility 100 μM and “++” meaning solubility

[4] = Plasma protein binding assay (equilibrium dialysis); assay type: in vitro ADME; conditions: 37° C., extrapolated fraction unbound
Procedure: Equilibrium dialysis is used to determine the extent of binding of a compound to plasma proteins. A semi-permeable membrane separates a protein-containing compartment from a protein-free compartment. The system is allowed to equilibrate at 37° C. The test compound present in each compartment is quantified by LC-MS/MS. The extent of binding is reported as a fraction unbound (fu) value which is calculated as fu=1−(PC−PF)/PC. PC=Test compound concentration in protein-containing compartment. PF=Test compound concentration in protein-free compartment. In addition to using whole plasma, the plasma protein binding assay can be performed using two other ratios of plasma (10% or 50% plasma in buffer v/v). The following equations are used to convert from a fraction unbound at 10% or 50% to a fraction unbound at 100%: […]

Caco-2 permeability = assay type: in vitro ADME; conditions: human, apical to basolateral
Procedure: Caco-2 cells are widely used as an in vitro model for predicting human drug absorption. The Caco-2 cell line is derived from a human colorectal carcinoma, and when cultured, the cells spontaneously differentiate into monolayers of polarised enterocytes. The cells are seeded on Transwell™ plates and form a confluent monolayer over 20 days prior to the experiment. On day 20, the test compound is added to the apical side of the membrane and the transport of the compound across the monolayer is monitored over a 2 hour time period. To study drug efflux, it is also necessary to investigate transport of the compound from the basolateral compartment to the apical compartment. The permeability coefficient (Papp) is calculated from the following equation: […]
Where dQ/dt is the rate of permeation of the drug across the cells, CO is the donor compartment concentration at time zero and A is the area of the cell monolayer.

| Structure (SMILES) | PAMPA Permeability (PAMPA permeability assay) [%] | microsomal CLint [1] [µL/min/mg] | concentration at 15 min [2] [ng/mL] | concentration at 45 min [2] [ng/mL] | solubility at 24 h [3] [µM] | fraction unbound [4] | Papp A→B at 2 h (Caco-2 permeability) [×10⁻⁶ cm/s] |
| --- | --- | --- | --- | --- | --- | --- | --- |
| CC(C)c1onc(-c2c(Cl)cccc2Cl)c1COc1ccc(/C=C/c2cccc(C(=O)O)c2)c(Cl)c1 [Compound B, reference compound] | 7 | 310 | 1600 | 1650 | < 2 | – | – |
| CC(C)c1onc(-c2c(Cl)cccc2Cl)c1COc1ccc(N(C)Cc2ccc(C(=O)O)cc2)c(C(F)(F)F)n1 [Example 28, 4(((6-((3-(2,6-Dichlorophenyl)-5-isopropylisoxazol-4-yl)methoxy)-2-(trifluoromethyl)pyridin-3-yl)(methyl)amino)methyl)benzoic acid] | – | – | 1780 | 2230 | – | – | – |
| CC(C)c1onc(-c2c(Cl)cccc2Cl)c1COc1ccc(N(C)C(=O)c2ccc(C(=O)O)cc2)c(C(F)(F)F)n1 [Example 7, N-{6-[3-(2,6-dichloro-phenyl)-5-isopropyl-isoxazol-4-ylmethoxy]-2-trifluoromethyl-pyridin-3-yl}-N-methyl-terephthalamic acid] | – | 45 | – | – | > 100 | 0.005 | 32 |
| Cc1nc(OCc2c(-c3c(Cl)cccc3Cl)noc2C(C)C)ccc1N(C)S(=O)(=O)c1ccc(C(=O)O)cc1 [Example 4, 4-(N-(6-((3-(2,6-dichlorophenyl)-5-isopropylisoxazol-4-yl)methoxy)-2-methylpyridin-3-yl)—N-methylsulfamoyl)benzoic acid] | 50 | – | – | – | > 100 | 0.0003 | 30 |
